Measured values reported in article PMC6405842, “Identification of a novel scaffold for a small molecule GPR139 receptor agonist” (Scientific Reports, 2019).
Substitutions are numbered along the chain they refer to.

Key:
Format in all cases: cell-based
[1] = biological target: T1, GPR139 F109A^3×33 (Homo sapiens, UniProt Q6DWJ6, F109A); assay: Ca2+ mobilization on GPR139 mutant F109A
T1 construct: myc (N); expressed in transfected cells
T1 sequence (Q6DWJ6 1-353 F109A): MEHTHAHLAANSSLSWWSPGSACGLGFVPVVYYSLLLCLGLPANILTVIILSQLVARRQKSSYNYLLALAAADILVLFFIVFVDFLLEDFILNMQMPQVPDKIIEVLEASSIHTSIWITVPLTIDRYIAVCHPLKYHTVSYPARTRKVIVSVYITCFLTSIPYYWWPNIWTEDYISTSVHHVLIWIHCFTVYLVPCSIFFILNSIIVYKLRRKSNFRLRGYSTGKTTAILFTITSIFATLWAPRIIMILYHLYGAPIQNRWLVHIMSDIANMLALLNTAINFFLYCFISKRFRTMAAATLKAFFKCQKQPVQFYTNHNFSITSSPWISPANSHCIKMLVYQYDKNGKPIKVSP
Description: (§1) Figure 4 Ca^2+ mobilization concentration-response curves of AC4 on GPR139 wild-type (WT) and mutants. Data is shown from a representative experiment (mean ± S.D.) out of three independent experiments performed in duplicate. Data is normalized to the Ca^2+ response of buffer (0%) and 100 μM AC4 (100%) on myc-GPR139(WT). Residue numbering in superscript is according to GPCRdb numbering system.
(§2) The mutational studies were performed as previously described.

[2] = biological target: T2, GPR139 F109L^3×33 (Homo sapiens, UniProt Q6DWJ6, F109L); assay: Ca2+ mobilization on GPR139 mutant F109L; settings: highest tested concentration (100 μM), n = 3
T2 construct: myc (N); expressed in transfected cells
T2 sequence (Q6DWJ6 1-353 F109L): T1 sequence (Q6DWJ6 1-353 F109A) with A109L
Description: as §1, §2

[3] = biological target: T3, GPR139 W241H^6×48 (Homo sapiens, UniProt Q6DWJ6, W241H); assay: Ca2+ mobilization on GPR139 mutant W241H
T3 construct: myc (N); expressed in transfected cells
T3 sequence (Q6DWJ6 1-353 W241H): T1 sequence (Q6DWJ6 1-353 F109A) with A109F, W241H
Description: as §1, §2

[4] = biological target: T4, GPR139 (Homo sapiens, UniProt Q6DWJ6); assay: Fluo-4 calcium mobilization assay, agonist mode, concentration-response curves in CHO-GPR139 cells
T4 construct: host or cells: CHO-k1
T4 sequence (Q6DWJ6 1-353): T1 sequence (Q6DWJ6 1-353 F109A) with A109F
Description: All compounds were tested on a CHO-k1 cell line stably expressing GPR139 (CHO-GPR139)[11] kindly provided by H. Lundbeck A/S, Denmark. GPR139-specific responses were assessed using a CHO-k1 cell line stably expressing the muscarinic acetylcholine receptor M1 (CHO-M1) (The Missouri S&T cDNA Resource Center, # CEM100TN00). The CHO-GPR139 cells were grown in Dulbecco’s modified Eagle’s medium (DMEM) F12-Kaighn’s (ThermoFisher Scientific # 21127) supplemented with 10% dialyzed fetal bovine serum (United States origin; ThermoFisher Scientific # 26400), 1% GlutaMAX-I (100X) (ThermoFisher Scientific # 35050061), and 100 units/mL penicillin and 100 µg/mL streptomycin (ThermoFisher Scientific # 15140122) and 1 mg/mL geneticin (ThermoFisher Scientific # 11811031). The CHO-M1 cells were grown in Ham’s F12 (ThermoFisher Scientific # 21765) supplemented with 10% fetal bovine serum (South American origin; ThermoFisher Scientific # 10270) + 100 units/mL penicillin and streptomycin and 0.25 mg/mL geneticin.
The Fluo-4 Ca^2+-assay was performed as described previously, with minor modifications. After 1 hour incubation with the Fluo-4 dye, the CHO-GPR139 cells were washed with 100 μL HEPES buffer (Hank’s Balanced Salt Solution (HBBS, ThermoFisher Scientific # 14175053) supplemented with 20 mM HEPES, 1 mM MgCl2, 1 mM CaCl2, pH = 7.4) and the compound library was then added in concentrations between 25–63 μM dissolved in HEPES buffer (supplemented with 2.5 mM probenecid and 1% DMSO) and pre-incubated for 10 min at 37 °C. 33 μL of 3.2 μM 1a were added automatically after baseline measurements. […] This set-up allowed us to identify both antagonists and agonists (Fig. 2).
Each compound, for which a concentration response curve was made, was tested at least three times in duplicate measurements. After the incubation with the Fluo-4 dye and a wash, 100 μL HEPES buffer (supplemented with 2.5 mM probenecid) was added to each well and incubated for 10 minutes at 37 °C before recording. 33 μL of compounds (4× concentrated) were added automatically after baseline measurements.
The Ca^2+ and ERK responses were normalized as indicated and the concentration response curves were fitted by Prism 6 software (GraphPad) using nonlinear regression in a sigmoidal model with variable slope, as has been previously described.

- Ca2+ response [1]: no measurable Ca^2+ response
- Ca2+ response [2]: 17 ± 2 % of WT
- Emax ([3]; mutant W241H, n = 3): 37 ± 3%
- fold change of EC50 on W241H versus WT ([3]; printed as lower EC50 than on WT): 12 fold
- Emax ([4]; CHO-GPR139 cells, normalized to buffer (0%) and 8 μM 1a (100%)): 116 ± 3%
- EC50 ([4]; CHO-GPR139 cells, read-out: pEC50 ± S.E.M. (converted)): 219 nM
- Emax ([4]; Table S1, normalized to compound 1a): 115 ± 3%
SMILES: O=C(O)C1CC=CCC1c1nnc(CSc2ccc(Cl)cc2)o1 (stereo not shown) [AC4]
